For assay [1], the target named is T1, Histone deacetylase 3 (Homo sapiens, UniProt O15379). Description: Inhibition of human KDAC3 at 30 uM using FITC-labeled p53 acetylated peptide as substrate after 60 mins by fluorescence assay relative to control.
The target in assay [2] is T2, Histone deacetylase 1 (Homo sapiens, UniProt Q13547). Description: Inhibition of human KDAC1 using substrate A after 60 mins by fluorescence assay.
A further assay has as its target T3, Histone deacetylase 8 (Homo sapiens, UniProt Q9BY41).
T3 sequence (Q9BY41 whole entry): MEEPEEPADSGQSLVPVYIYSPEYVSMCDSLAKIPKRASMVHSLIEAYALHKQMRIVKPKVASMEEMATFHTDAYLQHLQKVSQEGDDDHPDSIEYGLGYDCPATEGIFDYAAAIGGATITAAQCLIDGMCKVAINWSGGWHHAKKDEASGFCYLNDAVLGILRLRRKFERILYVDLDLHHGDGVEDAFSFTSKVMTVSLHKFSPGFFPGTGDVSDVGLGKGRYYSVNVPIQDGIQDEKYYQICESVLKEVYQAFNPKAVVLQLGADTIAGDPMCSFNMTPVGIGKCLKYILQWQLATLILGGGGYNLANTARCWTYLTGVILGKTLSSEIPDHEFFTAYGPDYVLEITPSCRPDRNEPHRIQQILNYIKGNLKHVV
Description: Inhibition of human KDAC8 after 60 mins by fluorescence assay.

The target in assay [3] is T1, Histone deacetylase 3. Description: Inhibition of human KDAC3 using FITC-labeled p53 acetylated peptide as substrate after 60 mins by fluorescence assay.
Assay [4] addresses T4, Histone deacetylase 8 (Homo sapiens) (UniProt Q9BY41).
T4 sequence (whole entry): T3 sequence (Q9BY41 whole entry)
Description: Inhibition of human KDAC8 at 30 uM after 60 mins by fluorescence assay relative to control.

Assay [5] deals with T5, Protein deacetylase HDAC6 (Homo sapiens, UniProt Q9UBN7).
T5 sequence (Q9UBN7 whole entry): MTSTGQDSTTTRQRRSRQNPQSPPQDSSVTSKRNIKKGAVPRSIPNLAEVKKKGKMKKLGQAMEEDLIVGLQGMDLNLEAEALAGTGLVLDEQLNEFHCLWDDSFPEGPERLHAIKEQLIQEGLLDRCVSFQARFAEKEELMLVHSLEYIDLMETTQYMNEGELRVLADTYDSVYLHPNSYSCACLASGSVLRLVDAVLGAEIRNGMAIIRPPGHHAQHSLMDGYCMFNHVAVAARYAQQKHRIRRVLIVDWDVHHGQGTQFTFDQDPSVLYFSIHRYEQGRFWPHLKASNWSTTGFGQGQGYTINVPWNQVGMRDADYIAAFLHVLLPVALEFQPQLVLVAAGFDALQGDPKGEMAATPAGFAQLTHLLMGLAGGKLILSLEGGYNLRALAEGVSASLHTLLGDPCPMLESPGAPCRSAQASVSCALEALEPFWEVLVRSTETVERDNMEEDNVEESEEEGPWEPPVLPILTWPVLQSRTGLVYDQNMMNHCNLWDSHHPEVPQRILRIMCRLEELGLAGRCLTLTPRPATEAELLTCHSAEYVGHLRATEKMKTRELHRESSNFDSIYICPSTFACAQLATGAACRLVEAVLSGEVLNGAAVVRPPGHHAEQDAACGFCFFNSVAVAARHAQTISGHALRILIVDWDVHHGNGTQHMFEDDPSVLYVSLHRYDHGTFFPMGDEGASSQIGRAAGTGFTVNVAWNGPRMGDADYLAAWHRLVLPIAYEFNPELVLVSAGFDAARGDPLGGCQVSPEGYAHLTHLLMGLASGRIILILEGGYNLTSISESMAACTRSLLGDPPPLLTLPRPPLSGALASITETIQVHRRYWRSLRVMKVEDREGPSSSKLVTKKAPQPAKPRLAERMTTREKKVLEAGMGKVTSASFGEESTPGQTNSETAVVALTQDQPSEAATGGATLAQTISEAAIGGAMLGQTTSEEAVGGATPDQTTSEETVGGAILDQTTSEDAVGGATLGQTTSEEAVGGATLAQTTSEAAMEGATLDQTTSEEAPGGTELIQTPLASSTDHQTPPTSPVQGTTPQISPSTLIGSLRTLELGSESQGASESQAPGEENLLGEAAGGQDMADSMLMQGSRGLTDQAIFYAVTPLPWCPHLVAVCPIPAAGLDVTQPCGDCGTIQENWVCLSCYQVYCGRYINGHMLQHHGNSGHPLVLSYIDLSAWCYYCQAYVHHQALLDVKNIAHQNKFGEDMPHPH
Description: Inhibition of human KDAC6 using FITC-labeled histone H4 acetylated peptide as substrate after 60 mins by fluorescence assay.

Assay [6] concerns the target T2, Histone deacetylase 1. Description: Inhibition of human KDAC1 at 30 uM using substrate A after 60 mins by fluorescence assay relative to control.
Assay [7] has as its target T6, Protein deacetylase HDAC6 (Homo sapiens) (UniProt Q9UBN7).
T6 sequence (whole entry): T5 sequence (Q9UBN7 whole entry)
The settings on record: at 30 µM.
Description: Inhibition of human KDAC6 at 30 uM using FITC-labeled histone H4 acetylated peptide as substrate after 60 mins by fluorescence assay relative to control

Data on 18 compounds can be found in ChEMBL document CHEMBL3997794, “Design and synthesis of benzodiazepine analogs as isoform-selective human lysine deacetylase inhibitors” (Eur J Med Chem, 2017).

T2 sequence (Q13547 whole entry): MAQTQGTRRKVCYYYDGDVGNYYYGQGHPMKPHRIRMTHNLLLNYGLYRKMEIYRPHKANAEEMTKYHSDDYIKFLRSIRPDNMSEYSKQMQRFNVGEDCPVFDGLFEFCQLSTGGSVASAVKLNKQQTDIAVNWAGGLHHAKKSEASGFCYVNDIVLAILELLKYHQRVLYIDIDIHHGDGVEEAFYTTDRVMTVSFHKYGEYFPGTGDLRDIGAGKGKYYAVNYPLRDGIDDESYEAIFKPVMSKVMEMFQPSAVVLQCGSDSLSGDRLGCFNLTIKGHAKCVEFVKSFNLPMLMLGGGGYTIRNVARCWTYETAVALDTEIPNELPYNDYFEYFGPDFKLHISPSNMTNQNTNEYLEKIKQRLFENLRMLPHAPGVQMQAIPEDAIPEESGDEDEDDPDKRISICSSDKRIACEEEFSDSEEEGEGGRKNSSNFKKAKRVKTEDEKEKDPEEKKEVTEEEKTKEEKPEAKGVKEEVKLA
T1 sequence (O15379 whole entry): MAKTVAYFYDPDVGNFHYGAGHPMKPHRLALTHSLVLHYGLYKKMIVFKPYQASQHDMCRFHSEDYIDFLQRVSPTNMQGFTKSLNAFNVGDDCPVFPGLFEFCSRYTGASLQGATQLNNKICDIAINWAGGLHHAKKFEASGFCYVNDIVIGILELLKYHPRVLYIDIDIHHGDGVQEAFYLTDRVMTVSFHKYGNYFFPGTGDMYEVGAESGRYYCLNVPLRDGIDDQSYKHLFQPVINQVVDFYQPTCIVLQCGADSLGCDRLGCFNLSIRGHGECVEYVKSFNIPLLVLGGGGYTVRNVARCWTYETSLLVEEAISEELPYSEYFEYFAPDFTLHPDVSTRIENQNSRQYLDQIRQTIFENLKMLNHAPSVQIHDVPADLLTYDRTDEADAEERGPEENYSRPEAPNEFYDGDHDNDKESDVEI

One may read the inhibition as the drop in the measured response relative to a control, in per cent. As usually defined, the IC50 is the concentration needed to halve the response being measured. A high value points to lower potency. As to `CC(C)(C)Oc1ccc(C[C@@H]2N=C(c3ccccc3)c3ccccc3N(CCCCC(=O)NO)C2=O)cc1`, the inhibition was determined as 98.4% against Histone deacetylase 3 [1], 89.9% in assay [4], 82% against Histone deacetylase 1 [6] and 92.1% in assay [7]. Further, the IC50 at Histone deacetylase 1 [2] stood at 6.18 µM; at Histone deacetylase 8, 3.3 µM; at Histone deacetylase 3 [3], 0.85 µM; in assay [5], 2.87 µM.
For the compound `CC(C)(C)OC(=O)CC[C@@H]1N=C(c2ccccc2)c2ccccc2N(CCCCC(=O)O)C1=O`, the inhibition on Histone deacetylase 3 [1] was 23.9%; in assay [4], 9.85%; against Histone deacetylase 1 [6] it was 7.96%; in assay [7] it was 0%. The concentration for half-maximal inhibition (IC50) (against Histone deacetylase 1 [2]; against Histone deacetylase 8; against Histone deacetylase 3 [3]; in assay [5]) was more than 30 µM throughout.
`COC(=O)CCCCN1C(=O)[C@H](CCSC)N=C(c2ccccc2)c2ccccc21`: the inhibition (against Histone deacetylase 3 [1]; in assay [4]; at Histone deacetylase 1 [6]; in assay [7]) was 0% throughout. In addition, the IC50 (on Histone deacetylase 1 [2]; against Histone deacetylase 8; on Histone deacetylase 3 [3]; in assay [5]) was more than 30 µM throughout.
Turning to `CSCC[C@@H]1N=C(c2ccccc2)c2ccccc2N(CCCCC(=O)NO)C1=O`, the inhibition against Histone deacetylase 3 [1] turned out to be 98.9%; in assay [4], 57.7%; at Histone deacetylase 1 [6] it was 81.6%; in assay [7] it was 93.1%. Besides, the IC50 against Histone deacetylase 1 [2] was determined as 6.43 µM; against Histone deacetylase 8, 20.3 µM; against Histone deacetylase 3 [3], 0.43 µM; in assay [5] it was 1.7 µM.
In the case of `CC(C)C[C@@H]1N=C(c2ccccc2)c2ccccc2N(CCCCC(=O)O)C1=O`, the inhibition was determined as 0% at Histone deacetylase 3 [1], 7% in assay [4], 3.1% against Histone deacetylase 1 [6] and 0% in assay [7]. In addition, the IC50 (at Histone deacetylase 1 [2]; on Histone deacetylase 8; at Histone deacetylase 3 [3]; in assay [5]) was more than 30 µM throughout.
As for `CSCC[C@@H]1N=C(c2ccccc2)c2ccccc2NC1=O`, the inhibition against Histone deacetylase 3 [1] was determined as 0%; in assay [4], 9.07%; on Histone deacetylase 1 [6], 0%; in assay [7] it was 2.62%. Moreover, the 50% inhibitory concentration (IC50) (against Histone deacetylase 1 [2]; against Histone deacetylase 8; at Histone deacetylase 3 [3]; in assay [5]) was more than 30 µM throughout.
In the case of `O=C(CCCCN1C(=O)[C@H](CC(=O)NO)N=C(c2ccccc2)c2ccccc21)NO`, the inhibition on Histone deacetylase 3 [1] turned out to be 77.7%; in assay [4], 10%; against Histone deacetylase 1 [6], 74.7%; in assay [7], 42.5%. For the same compound, the half-maximal inhibitory concentration (IC50) was 9.99 µM on Histone deacetylase 1 [2], more than 30 µM against Histone deacetylase 8, 10.4 µM against Histone deacetylase 3 [3] and more than 30 µM in assay [5].
In the case of `Cc1c(C)c(S(=O)(=O)NC(=N)NCCC[C@@H]2N=C(c3ccccc3)c3ccccc3N(CCCCC(=O)NO)C2=O)c(C)c2c1OC(C)(C)C2`, the inhibition against Histone deacetylase 3 [1] came out at 94.6%; in assay [4], 22.6%; at Histone deacetylase 1 [6], 39.1%; in assay [7], 70.2%. The IC50 on Histone deacetylase 1 [2] was more than 30 µM; against Histone deacetylase 8, more than 30 µM; against Histone deacetylase 3 [3], 4.29 µM; in assay [5], 16.2 µM.
As to `NC(=O)CC[C@@H]1N=C(c2ccccc2)c2ccccc2N(CCCCC(=O)NO)C1=O`, the inhibition at Histone deacetylase 3 [1] worked out at 94%; in assay [4], 30.8%; against Histone deacetylase 1 [6], 64.5%; in assay [7] it was 96%. The IC50 against Histone deacetylase 1 [2] was 13.9 µM; at Histone deacetylase 8, more than 30 µM; against Histone deacetylase 3 [3], 1.94 µM; in assay [5] it was 1.29 µM.
In the case of `O=C(CCCCN1C(=O)[C@H](Cc2ccccc2)N=C(c2ccccc2)c2ccccc21)NO`, the inhibition amounted to 97% against Histone deacetylase 3 [1], 68.6% in assay [4], 75% at Histone deacetylase 1 [6] and 95.1% in assay [7]. The IC50 amounted to 8.51 µM at Histone deacetylase 1 [2], 12.7 µM at Histone deacetylase 8, 0.49 µM at Histone deacetylase 3 [3] and 1.98 µM in assay [5].
For the compound `CC(C)(C)OC(=O)C[C@@H]1N=C(c2ccccc2)c2ccccc2NC1=O`, the inhibition against Histone deacetylase 3 [1] is 3.95%; in assay [4], 5.34%; against Histone deacetylase 1 [6], 9.6%; in assay [7], 0%. Moreover, the half-inhibitory concentration (IC50) (against Histone deacetylase 1 [2]; on Histone deacetylase 8; on Histone deacetylase 3 [3]; in assay [5]) was more than 30 µM in each case.
On to `O=C(C[C@@H]1N=C(c2ccccc2)c2ccccc2NC1=O)NO`, for which the inhibition at Histone deacetylase 3 [1] came to 0%; in assay [4], 12.2%; against Histone deacetylase 1 [6] it was 9.99%; in assay [7], 0.88%. Also, the IC50 (against Histone deacetylase 1 [2]; against Histone deacetylase 8; at Histone deacetylase 3 [3]; in assay [5]) was more than 30 µM throughout.
For `CC(C)(C)OC(=O)n1c(C[C@@H]2N=C(c3ccccc3)c3ccccc3N(CCCCC(=O)NO)C2=O)cc2ccccc21`, the inhibition on Histone deacetylase 3 [1] came out at 93.1%; in assay [4], 79.7%; at Histone deacetylase 1 [6], 46.9%; in assay [7], 85%. Moreover, the concentration for half-maximal inhibition (IC50) against Histone deacetylase 1 [2] was more than 30 µM; at Histone deacetylase 8, 8.39 µM; against Histone deacetylase 3 [3] it was 5.21 µM; in assay [5], 6.92 µM.
With `O=C(CCCNC(=O)CC[C@@H]1N=C(c2ccccc2)c2ccccc2NC1=O)NO`, the inhibition on Histone deacetylase 3 [1] worked out at 87.2%; in assay [4] it was 33.6%; at Histone deacetylase 1 [6], 55.8%; in assay [7] it was 83.5%. Also, the IC50 at Histone deacetylase 1 [2] was 22.9 µM; against Histone deacetylase 8, more than 30 µM; on Histone deacetylase 3 [3] it was 5.17 µM; in assay [5], 7.16 µM.
In the case of `N=C(N)NCCC[C@@H]1N=C(c2ccccc2)c2ccccc2N(CCCCC(=O)NO)C1=O`, the inhibition at Histone deacetylase 3 [1] came out at 101%; in assay [4], 27.9%; at Histone deacetylase 1 [6], 91.8%; in assay [7] it was 91.2%. The IC50 is 1.44 µM against Histone deacetylase 1 [2], more than 30 µM against Histone deacetylase 8, 0.22 µM against Histone deacetylase 3 [3] and 2.63 µM in assay [5].
`CSCC[C@@H]1N=C(c2ccccc2)c2ccccc2N(CCCCC(=O)O)C1=O`: the inhibition against Histone deacetylase 3 [1] turned out to be 0%; in assay [4], 2.75%; against Histone deacetylase 1 [6], 4.46%; in assay [7] it was 0%. Further, the IC50 (against Histone deacetylase 1 [2]; on Histone deacetylase 8; at Histone deacetylase 3 [3]; in assay [5]) was more than 30 µM each time.
Consider `C[C@@H]1N=C(c2ccccc2)c2ccccc2NC1=O`, for which the inhibition against Histone deacetylase 3 [1] was 0%; in assay [4], 0%; against Histone deacetylase 1 [6], 7.49%; in assay [7], 0%. For the same compound, the IC50 (at Histone deacetylase 1 [2]; on Histone deacetylase 8; against Histone deacetylase 3 [3]; in assay [5]) was more than 30 µM throughout.
`COC(=O)CCCCN1C(=O)[C@H](CCCCNC(=O)OC(C)(C)C)N=C(c2ccccc2)c2ccccc21`: the inhibition was found to be 1.96% against Histone deacetylase 3 [1], 1.03% in assay [4], 8.22% against Histone deacetylase 1 [6] and 0% in assay [7]. Besides, the IC50 (against Histone deacetylase 1 [2]; against Histone deacetylase 8; against Histone deacetylase 3 [3]; in assay [5]) was more than 30 µM each time.
